Consider two molecules from paper doi:10.1101/2023.08.01.551199v1, “Activation of cannabinoid CB2 receptors by (−)-cannabichromene but not (+)-cannabichromene” (biorxiv, 2023).

A value given as a limit tells only on which side of the number the result lay.

Type in all cases: cell-based
Experiment [1] deals with T1, human TRPA1 (Homo sapiens, UniProt O75762).
T1 construct: tetracycline-induced expression in HEK293 FlpIn/T-REx cells
In words: fluorescent intracellular calcium assay (FLIPR Ca5), HEK293-TRPA1 cells. Conditions: agonist; 37 °C, pH 7.4, 0.1% DMSO, 1.25 mM probenecid. A general note: Calcium flux is commonly read through the fluorescence of an indicator in the cells.

Another experiment concerns the target T2, human CB2 (Homo sapiens, UniProt P34972).
T2 construct: gene CNR2; stably expressed in AtT20 FlpIn cells
In words: fluorescent membrane potential assay (MPA Blue), AtT20-CB2 cells. Conditions: 37 °C, pH 7.4, 0.1% DMSO; no activation up to the highest concentration tested.

For experiment [2], the target named is T1, human TRPA1. The experiment is described as follows: fluorescent intracellular calcium assay (FLIPR Ca5), HEK293-TRPA1 cells. The text has this: fluorescent intracellular calcium assay (FLIPR Ca5), HEK293-TRPA1 cells on human TRPA1 | In HEK293-TRPA1 cells cinnamaldehyde produced an increase in Ca5 fluorescence

T1 sequence (O75762 whole entry): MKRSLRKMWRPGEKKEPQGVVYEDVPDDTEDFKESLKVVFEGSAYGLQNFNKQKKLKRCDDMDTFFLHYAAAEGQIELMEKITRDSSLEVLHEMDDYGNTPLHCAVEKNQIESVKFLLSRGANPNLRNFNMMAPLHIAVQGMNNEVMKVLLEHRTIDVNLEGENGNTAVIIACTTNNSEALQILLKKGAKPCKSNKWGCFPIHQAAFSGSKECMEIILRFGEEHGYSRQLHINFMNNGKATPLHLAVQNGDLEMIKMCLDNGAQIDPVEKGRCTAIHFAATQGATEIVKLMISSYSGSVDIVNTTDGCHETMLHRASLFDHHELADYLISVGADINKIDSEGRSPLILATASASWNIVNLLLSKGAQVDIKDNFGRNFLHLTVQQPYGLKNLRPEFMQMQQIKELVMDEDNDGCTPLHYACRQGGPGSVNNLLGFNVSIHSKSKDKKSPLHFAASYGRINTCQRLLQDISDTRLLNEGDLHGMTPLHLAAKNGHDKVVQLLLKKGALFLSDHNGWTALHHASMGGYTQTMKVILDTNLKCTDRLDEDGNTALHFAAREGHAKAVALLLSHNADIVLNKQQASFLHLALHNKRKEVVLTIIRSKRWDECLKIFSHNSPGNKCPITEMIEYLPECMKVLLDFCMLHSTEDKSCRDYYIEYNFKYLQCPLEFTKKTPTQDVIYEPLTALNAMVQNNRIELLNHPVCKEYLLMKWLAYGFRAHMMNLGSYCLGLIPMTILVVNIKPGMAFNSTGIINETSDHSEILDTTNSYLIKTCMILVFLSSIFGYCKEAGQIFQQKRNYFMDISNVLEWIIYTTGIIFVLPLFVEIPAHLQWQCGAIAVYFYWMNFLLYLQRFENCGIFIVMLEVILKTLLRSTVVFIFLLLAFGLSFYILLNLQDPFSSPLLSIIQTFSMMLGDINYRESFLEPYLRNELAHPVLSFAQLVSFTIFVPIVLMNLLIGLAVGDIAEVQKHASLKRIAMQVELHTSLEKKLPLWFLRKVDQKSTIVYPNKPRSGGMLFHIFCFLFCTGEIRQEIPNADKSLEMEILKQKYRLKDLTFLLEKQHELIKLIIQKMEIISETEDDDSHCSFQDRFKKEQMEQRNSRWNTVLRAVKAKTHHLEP
T2 sequence (P34972 whole entry): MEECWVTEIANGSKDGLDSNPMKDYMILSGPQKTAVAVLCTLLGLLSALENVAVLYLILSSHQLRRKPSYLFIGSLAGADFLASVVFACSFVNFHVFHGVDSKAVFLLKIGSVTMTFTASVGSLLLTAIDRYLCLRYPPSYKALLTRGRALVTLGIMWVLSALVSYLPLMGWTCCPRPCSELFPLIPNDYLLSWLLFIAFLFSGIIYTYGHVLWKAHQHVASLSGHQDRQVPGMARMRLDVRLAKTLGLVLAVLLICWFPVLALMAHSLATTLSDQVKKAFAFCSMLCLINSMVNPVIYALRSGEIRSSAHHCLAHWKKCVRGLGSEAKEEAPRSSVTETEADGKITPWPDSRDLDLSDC

Consider `CCCCCc1cc(O)c2c(c1)OC(C)(CCC=C(C)C)C=C2` (single isomer, unassigned; (+)) [(+)-CBC], for which the “increase in fluorescence at 30 μM” value on human TRPA1 [1] is on record as 159 ± 27%. Further, the EC50 (in general, the concentration at which the effect is half-maximal) on human CB2 is over 30 µM.
Take `O=CC=Cc1ccccc1` [cinnamaldehyde]: the EC50 on human TRPA1 [2] was 11 µM.
